For test [1], the system named is 25 mer A-T-DNA. The test is described as follows: TM measurement by RT-PCR (HRM/SYBR green), A-T DNA. It is filed as binding. To be noted: for shift in TM of A-T DNA: (d/dT) fluorescence (465-510), compared to the control without addition; for TM of 25 mer A-T-DNA in the treated well: control wells 56.1-57.1° C. As for the experimental part: (§1) The primers listed in Table 4 were purchased from Sigma Aldrich (Israel). Primers number 1 and 3 are complementary and annealed to form CG/GC double-stranded DNA fragment, and primers number 5 and 7 are complementary and annealed to form AT double-stranded DNA fragment. The DNA complementary oligomers were hybridized in a medium salt buffer containing 10 mM NaCl, 10 mM sodium phosphate and 0.1 mM EDTA, pH 7.0. The samples were heated to 90° C. for 5 min, slowly cooled to 20° C. and left at 4° (1 until used for TM measurements with RT-PCR.
(§2) According to this method, 5 μl of a selected double-stranded DNA is incubated with a 5 μl solution of a selected compound at RT for 5 min; 10 μl HRM/SYB (high resolution melting/syber green I) (X2) are then added; and the TM is then measured. The run program for TM measurement is as following: keep temperature of final solution at 25° C. for 5 min, raise temperature up to 99° C. with a rate of 0.1° C./sec, and then cool to 37° C.
(§3) In a further study, the effect of AH-11 as well as three additional similar compounds having the same heterocyclic (pyridine) core on the TM of DNA double-stranded sequences consisting of A-T or C-G base pairs only was tested by RT-PCR as described in Materials and Methods. The additional compounds tested are 4-amino-N-(6-aminopyridin-2-yl)butanamide, N,N′-(pyridine-2,6-diyl)bis(3-aminopropanamide), and N,N′-(pyridine-2,6-diyl)bis(4-aminobutanamide), herein identified […] and AH-14, respectively (chemical structures are shown in Scheme 5). […] Compounds AH-11, AH-12 and AH-13 increased the TM of 25 mer A-T-DNA by 4.2° C., 5.7° C. and 9.9° C., respectively. In all four cases, no effect was observed on the TM of 25 mer C-G-DNA (the TM shift range between 0.3 and 0.8° C.).
(§4) In this study, the ability of monomer units M1-6a, designed to be specific for A-T base pairs only, and M4-4a, designed to be specific for C-G base pairs only, to effectively and selectively bind to DNA double-stranded sequences consisting of A-T or C-G base pairs only was tested using the RT-PCR method as described in Material and Methods. Nevertheless, in order to neutralize a possible influence of the carboxylic groups of these monomers on the specificity and selectivity of the monomers, the compounds practically used were 3-(2-amino-9-(2-((2-(tert-butoxycarbonylamino)ethyl)(2-ethoxy-2-oxoethyl)amino)-2-oxoethyl)-9H-purin-6-ylamino)-N,N,N-trimethylpropan-1-aminium and 3-(9-(2-((2-(tert-butoxycarbonylamino)ethyl)(2-ethoxy-2-oxoethyl)amino)-2-oxoethyl)-2-oxo-2,9-dihydro-1H-purin-6-ylamino)-N,N,N-trimethylpropan-1-aminium, which are analogs of these monomer units M1-6a and M4-4a, respectively, in which the carboxyl groups are protected with ethyl (see Scheme 10 and 17).

Test [2] deals with 25 mer C-G-DNA. The test is described as follows: TM measurement by RT-PCR (HRM/SYBR green), C-G DNA. The format is binding. The settings on record: for shift in TM of C-G DNA: (d/dT) fluorescence (465-510), compared to the control without addition; for TM of 25 mer C-G-DNA in the treated well: control wells 84.3-86° C. How it is done:
as §1, §2, §3, §4
The biological activity of the polymers synthesized, i.e., their ability to specifically interact with specific fragments of double-stranded DNA, was tested using the RT-PCR method, as described in Materials and Methods.

Test [3] deals with 25 mer A-T-DNA. Description: TM of treated duplex DNA by UV spectra at 260 nm, A-T DNA. The format is binding. The settings on record: UV 260 nm; incubated at 37° C. for 36 hours; TM without compound 53° C. How it is done: (§5) Duplex DNA (dsDNA-1,2) sequences are formed by incubating a solution of single-strand DNA-1 and single-strand DNA-2 (1:1) at 90° C. for 5 min, and slowly cooling down to RT for 1-2 hours. Treated Duplex DNA (dsDNA-1,2 bonded to a triplex forming molecule of the invention) is formed by incubating a solution of triplex forming molecule (TFM) of the invention and dsDNA-1,2 (1:1) at 37° C. for 36 hours.
(§6) The melting temperature (TM), i.e., the temperature at which a DNA double helix dissociates into single strands, measurements of Duplex DNA or Treated Duplex DNA are carried out using quartz cuvettes with an optical path length of 1 cm on a Cray 300 UV/vis spectrophotometer interfaced with a computer for data collection and analysis. The temperature is increased from 30° C. to 98° C. at the rate of 1° C./min, and the TM is determined by plotting the first derivative of the absorbance at 260 nm vs. temperature profile. TM is defined as the temperature at which half the molecules are single-stranded.
(§7) In order to test the effect of AH-11, designed to be specific for A-T base pair, on the TM of DNA double-stranded sequences consisting of A-T or C-G base pairs only, two solutions each containing one of the aforesaid sequences were incubated with a solution containing the compound AH-11 at 37° C. for 36 hours, and treated double-stranded DNA were formed. […]

For test [4], the system named is 25 mer C-G-DNA. The test is described as follows: TM of treated duplex DNA by UV spectra at 260 nm, C-G DNA. It is filed as binding. The settings on record: UV 260 nm; incubated at 37° C. for 36 hours. As for the experimental part:
as §5, §6, §7

Test [5] concerns restriction enzyme (satI). Description: Prevention of restriction enzyme digestion of a PCR product (agarose gel). The format is biochemical. The settings on record: for preventing restriction enzyme satI from digesting the DNA fragment: lanes 5+5B, 5+7B, 10+7B compared with cut 5 and cut 10 without AH-13. The source says:
This can be seen by comparing lanes “5+5B”, “5+7B” and “[…]” with “cut 5” and “cut 10”, wherein no AH-13 was used.

In test [6] the test system is 25 mer A-T-DNA. Description: TM measurement by RT-PCR (HRM/SYBR green), A-T DNA. To be noted: incubation time from 5 min to 60 or 100 min. The format is binding.

A value given as a limit tells only on which side of the number the result lay.

“3-(2-amino-9-(2-((2-(tert-butoxycarbonylamino)ethyl)(2-ethoxy-2-oxoethyl)amino)-2-oxoethyl)-9H-purin-6-ylamino)-N,N,N-trimethylpropan-1-aminium [analog of M1-6a]”: in the test with 25 mer A-T-DNA [1], the “shift in TM of A-T DNA” value was 6.9 °C and the “TM of 25 mer A-T-DNA in the treated well” value was 63 °C. Besides, in the test on 25 mer C-G-DNA [2], the “effect on the TM of 25 mer C-G-DNA” value was “did not affect” and the “shift in TM of C-G DNA” value is < 1.0 °C.
Turning to “3-(9-(2-((2-(tert-butoxycarbonylamino)ethyl)(2-ethoxy-2-oxoethyl)amino)-2-oxoethyl)-2-oxo-2,9-dihydro-1H-purin-6-ylamino)-N,N,N-trimethylpropan-1-aminium [analog of M4-4a]”, in the test on 25 mer A-T-DNA [1], the “effect on the TM of 25 mer A-T-DNA” value is reported as “did not affect” and the “shift in TM of A-T DNA” value came out at 0.3 °C. Moreover, in the test on 25 mer C-G-DNA [2], the “shift in TM of C-G DNA” value came out at 5.6 °C and the “TM of 25 mer C-G-DNA in the treated well” value worked out at 90.1 °C.
`NCCC(=O)Nc1cccc(N)n1` [AH-11, 3-amino-N-(6-aminopyridin-2-yl)propanamide]: the “shift in TM of A-T DNA” value in the test with 25 mer A-T-DNA [1] amounted to 4.2 °C. In addition, the “TM of 25 mer A-T-DNA after treatment” value with 25 mer A-T-DNA [3] is 85 °C. For the same compound, the “effect on the TM of 25 mer C-G-DNA” value in the test on 25 mer C-G-DNA [4] is on record as “did not affect at all”.
`NCCCC(=O)Nc1cccc(N)n1` [AH-12, 4-amino-N-(6-aminopyridin-2-yl)butanamide]: the “shift in TM of A-T DNA” value with 25 mer A-T-DNA [1] was 5.7 °C.
On to `NCCC(=O)Nc1cccc(NC(=O)CCN)n1` [AH-13, N,N′-(pyridine-2,6-diyl)bis(3-aminopropanamide)], for which, in the test on 25 mer A-T-DNA [1], the “shift in TM of A-T DNA” value was 9.9 °C. Also, in test [5] (10 μl PCR product + 5 μl AH-13, both cut and uncut DNA present), the “interference with satI enzyme activity in lane 10+5B” value is recorded as “not sufficient to completely interfere with the enzyme activity”. For the same compound, the “preventing restriction enzyme satI from digesting the DNA fragment” value in test [5] is “capable in a concentration dependent manner of preventing a restriction enzyme (satI)”; in test [5] (listed as AH-1) it was “capable of specifically interfering with the activity of the restriction enzyme satI, in a concentration dependent manner”.
With `NCCCC(=O)Nc1cccc(NC(=O)CCCN)n1` [AH-14, N,N′-(pyridine-2,6-diyl)bis(4-aminobutanamide)], in the test with 25 mer A-T-DNA [1], the “effect on the TM of 25 mer A-T-DNA” value is “most effective compound” and the “shift in TM of A-T DNA” value is 11.7 °C. The “shift in TM of C-G DNA” value with 25 mer C-G-DNA [2] came out at 0.8 °C.
With `CC(C)(C)OC(=O)NCCN(CC(=O)O)C(=O)Cn1cnc2c(NCCC[N+](C)(C)C)nc(N)nc21` [M1-6a, 3-(2-amino-9-(2-((2-(tert-butoxycarbonylamino)ethyl)(carboxymethyl)amino)-2-oxoethyl)-9H-purin-6-ylamino)-N,N,N-trimethylpropan-1-aminium], the “TM of 25 mer A-T-DNA in the treated well” value with 25 mer A-T-DNA [1] is 63 °C. The “TM of treated 25 mer A-T-DNA upon increasing the incubation time” value in the test on 25 mer A-T-DNA [6] is “No difference”. Besides, in the test on 25 mer C-G-DNA [2], the “effect on the TM of 25 mer C-G-DNA” value is reported as “did not affect at all” and the “TM of 25 mer C-G-DNA in the treated well” value came to 85.1 °C.
Consider `CC(C)(C)OC(=O)NCCN(CC(=O)O)C(=O)Cn1cnc2c(NCCC[N+](C)(C)C)[nH]c(=O)nc21` [M4-4a, 3-(9-(2-((2-(tert-butoxycarbonylamino)ethyl)(carboxymethyl)amino)-2-oxoethyl)-2-oxo-2,9-dihydro-1H-purin-6-ylamino)-N,N,N-trimethylpropan-1-aminium], for which, in the test with 25 mer A-T-DNA [1], the “effect on the TM of 25 mer A-T-DNA” value was “did not affect at all” and the “TM of 25 mer A-T-DNA in the treated well” value amounted to 57.4 °C. Moreover, the “TM of 25 mer C-G-DNA in the treated well” value in the test on 25 mer C-G-DNA [2] is 90.1 °C.

For the origin of these results see patent US20130231480A1, “SEQUENCE SPECIFIC DOUBLE-STRANDED DNA/RNA BINDING COMPOUNDS AND USES THEREOF” (GENEARREST LTD, priority 2010, published 2013).
